Results on two compounds are retold here after ChEMBL document CHEMBL4507280 (2021).

Structures are written as SMILES.

Series [1] has as its target 5-hydroxytryptamine receptor 7 (Homo sapiens) (UniProt P34969). To be noted: Compound concentration 10.0 uM.
The target in series [2] is T1, Alpha-1A adrenergic receptor (Homo sapiens) (UniProt P35348).
T1 sequence (whole entry): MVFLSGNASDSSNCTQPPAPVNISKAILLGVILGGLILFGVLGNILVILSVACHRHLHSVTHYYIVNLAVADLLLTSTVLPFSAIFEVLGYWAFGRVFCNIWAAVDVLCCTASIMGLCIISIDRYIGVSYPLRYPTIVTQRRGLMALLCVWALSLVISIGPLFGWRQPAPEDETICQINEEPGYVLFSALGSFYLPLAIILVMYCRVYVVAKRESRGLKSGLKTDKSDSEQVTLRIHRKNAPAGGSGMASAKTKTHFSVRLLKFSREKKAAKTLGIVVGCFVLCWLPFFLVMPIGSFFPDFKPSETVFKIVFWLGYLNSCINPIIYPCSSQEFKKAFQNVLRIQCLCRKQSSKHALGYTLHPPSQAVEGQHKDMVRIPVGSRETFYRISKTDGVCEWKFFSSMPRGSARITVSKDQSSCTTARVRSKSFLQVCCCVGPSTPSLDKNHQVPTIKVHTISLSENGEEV
Kind of series: ALPHA1A/R Eurofins-Panlabs selectivity data (BI). The settings on record: Rattus norvegicus; Compound concentration 10.0 uM.

Series [3] has as its target Voltage-dependent L-type calcium channel subunit alpha-1C (DHP site) (Rattus norvegicus, UniProt P22002). Kind of series: CA+/DHPSI/RA Eurofins-Panlabs selectivity data (BI). The settings on record: compound concentration 10 uM, read-out: % Ctrl.
The target of series [4] is Protein kinase C alpha type (Mus musculus) (UniProt P20444). Kind of series: PHORBOLE/M Eurofins-Panlabs selectivity data (BI). To be noted: Compound concentration 10.0 uM.
For series [5], the target named is Dual specificity mitogen-activated protein kinase kinase 5 (Homo sapiens) (UniProt Q13163). The settings on record: Compound concentration 1000.0 nM.
Series [6] addresses 3',5'-cyclic-AMP phosphodiesterase 4A (Rattus norvegicus) (UniProt P54748). Kind of series: ROLIPRAM/R Eurofins-Panlabs selectivity data (BI). The settings on record: Compound concentration 10.0 uM.
Series [7] deals with 5-hydroxytryptamine receptor 1B (Homo sapiens) (UniProt P28222). The settings on record: Compound concentration 10.0 uM.
The target of series [8] is Muscarinic acetylcholine receptor M3 (Homo sapiens) (UniProt P20309). Kind of series: M3/HU Eurofins-Panlabs selectivity data (BI). The settings on record: Compound concentration 10.0 uM.
The target of series [9] is T2, Muscarinic acetylcholine receptor M2 (Homo sapiens) (UniProt P08172).
T2 sequence (whole entry): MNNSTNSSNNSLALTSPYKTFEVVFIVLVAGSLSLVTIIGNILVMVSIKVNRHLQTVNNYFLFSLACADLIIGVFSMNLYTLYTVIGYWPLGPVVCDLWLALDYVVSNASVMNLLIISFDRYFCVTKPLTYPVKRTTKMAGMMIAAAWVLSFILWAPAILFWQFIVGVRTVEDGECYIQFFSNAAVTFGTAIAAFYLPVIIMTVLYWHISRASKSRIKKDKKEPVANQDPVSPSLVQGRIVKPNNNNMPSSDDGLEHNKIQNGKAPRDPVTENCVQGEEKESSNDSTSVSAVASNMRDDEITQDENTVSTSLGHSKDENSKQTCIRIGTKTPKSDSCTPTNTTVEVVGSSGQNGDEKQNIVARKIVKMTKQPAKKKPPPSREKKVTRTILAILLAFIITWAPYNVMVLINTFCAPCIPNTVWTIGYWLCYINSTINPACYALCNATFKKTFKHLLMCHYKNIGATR
Kind of series: M2/HU Eurofins-Panlabs selectivity data (BI). To be noted: Compound concentration 10.0 uM.

In series [10] the target is T3, Sigma intracellular receptor 2 (Homo sapiens, UniProt Q5BJF2). Kind of series: SIGMA2/R Eurofins-Panlabs selectivity data (BI). The settings on record: Rattus norvegicus; Compound concentration 10.0 uM.
The target of series [11] is Mu-type opioid receptor (Homo sapiens) (UniProt P35372). Kind of series: MU/HU Eurofins-Panlabs selectivity data (BI). The settings on record: Compound concentration 10.0 uM.
Series [12] deals with Alpha-1D adrenergic receptor (Homo sapiens) (UniProt P25100). To be noted: Compound concentration 10.0 uM.
The target of series [13] is Sigma non-opioid intracellular receptor 1 (Homo sapiens) (UniProt Q99720). Kind of series: SIGMA1/HU Eurofins-Panlabs selectivity data (BI). To be noted: Compound concentration 10.0 uM.
For series [14], the target named is D(1A) dopamine receptor (Homo sapiens) (UniProt P21728). Kind of series: D1/HU Eurofins-Panlabs selectivity data (BI). To be noted: Compound concentration 10.0 uM.
Series [15] has as its target Alpha-2A adrenergic receptor (Homo sapiens) (UniProt P08913). Kind of series: ALPHA2A/H Eurofins-Panlabs selectivity data (BI). To be noted: Compound concentration 10.0 uM.
The target in series [16] is D(2) dopamine receptor (Homo sapiens) (UniProt P14416). Kind of series: D2S/HU Eurofins-Panlabs selectivity data (BI). The settings on record: Compound concentration 10.0 uM.
For series [17], the target named is Glutamate receptor ionotropic, NMDA 2A (Rattus norvegicus) (UniProt Q00959). Kind of series: NMDAPHSI/R Eurofins-Panlabs selectivity data (BI). To be noted: Compound concentration 10.0 uM.
The target in series [18] is Beta-1 adrenergic receptor (Homo sapiens) (UniProt P08588). Kind of series: BETA1/HU Eurofins-Panlabs selectivity data (BI). The settings on record: Compound concentration 10.0 uM.
The target in series [19] is Pyroglutamylated RF-amide peptide receptor (Homo sapiens) (UniProt Q96P65). Kind of series: GPR103 Eurofins-Panlabs selectivity data (BI). To be noted: Compound concentration 10.0 uM.
The target of series [20] is Serine/threonine-protein kinase BRSK1 (Homo sapiens) (UniProt Q8TDC3). To be noted: Compound concentration 1000.0 nM.
For series [21], the target named is Activin receptor type-1B (Homo sapiens) (UniProt P36896). The settings on record: Compound concentration 1000.0 nM.
Series [22] concerns the target Serine/threonine-protein kinase MRCK beta (Homo sapiens) (UniProt Q9Y5S2). The settings on record: Compound concentration 1000.0 nM.
The target in series [23] is Tyrosine-protein kinase Fgr (Homo sapiens) (UniProt P09769). The settings on record: Compound concentration 1000.0 nM.
Series [24] addresses Glycogen synthase kinase-3 beta (Homo sapiens) (UniProt P49841). The settings on record: Compound concentration 1000.0 nM.
The next series deals with Histamine H4 receptor (Homo sapiens, UniProt Q9H3N8). Kind of series: GPCRScan assay: inhibition of H4. Also on record: radioligand conc. used [nm] 1.0 – 5.0, parental cells HEK T.
Series [25] addresses Ribosomal protein S6 kinase alpha-5 (Homo sapiens) (UniProt O75582). To be noted: Compound concentration 1000.0 nM.
The subject of series [26] is Tyrosine-protein kinase ABL1 (Homo sapiens), P00519 [F317I]. To be noted: Compound concentration 1000.0 nM.
The target in series [27] is T3, Sigma intracellular receptor 2. Kind of series: GPCRScan assay: inhibition of Sigma 2. Also on record: radioligand conc. used [nm] 5.0, parental cells HEKT.
For series [28], the target named is Uncharacterized serine/threonine-protein kinase SBK3 (Homo sapiens) (UniProt P0C264). The settings on record: Compound concentration 1000.0 nM.
Chain of Uncharacterized serine/threonine-protein kinase SBK3 (Homo sapiens) (P0C264 whole entry): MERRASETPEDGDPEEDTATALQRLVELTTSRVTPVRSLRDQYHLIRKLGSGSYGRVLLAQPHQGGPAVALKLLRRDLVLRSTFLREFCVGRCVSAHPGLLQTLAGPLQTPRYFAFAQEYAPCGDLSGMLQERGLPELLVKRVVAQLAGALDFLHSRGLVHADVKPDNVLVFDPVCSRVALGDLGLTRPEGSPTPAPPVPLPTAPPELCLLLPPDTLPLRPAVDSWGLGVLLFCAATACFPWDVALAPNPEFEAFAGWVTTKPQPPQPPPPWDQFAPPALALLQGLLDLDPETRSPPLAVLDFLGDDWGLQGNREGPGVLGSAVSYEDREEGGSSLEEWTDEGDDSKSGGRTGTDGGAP

T3 sequence (Q5BJF2 whole entry): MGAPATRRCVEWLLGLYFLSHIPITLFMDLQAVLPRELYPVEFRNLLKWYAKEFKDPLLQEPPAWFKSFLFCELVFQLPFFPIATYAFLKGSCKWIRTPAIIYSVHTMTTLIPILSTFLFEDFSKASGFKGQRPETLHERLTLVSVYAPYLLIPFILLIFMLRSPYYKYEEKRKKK
Chain of Serine/threonine-protein kinase MRCK beta (Homo sapiens) (Q9Y5S2 whole entry): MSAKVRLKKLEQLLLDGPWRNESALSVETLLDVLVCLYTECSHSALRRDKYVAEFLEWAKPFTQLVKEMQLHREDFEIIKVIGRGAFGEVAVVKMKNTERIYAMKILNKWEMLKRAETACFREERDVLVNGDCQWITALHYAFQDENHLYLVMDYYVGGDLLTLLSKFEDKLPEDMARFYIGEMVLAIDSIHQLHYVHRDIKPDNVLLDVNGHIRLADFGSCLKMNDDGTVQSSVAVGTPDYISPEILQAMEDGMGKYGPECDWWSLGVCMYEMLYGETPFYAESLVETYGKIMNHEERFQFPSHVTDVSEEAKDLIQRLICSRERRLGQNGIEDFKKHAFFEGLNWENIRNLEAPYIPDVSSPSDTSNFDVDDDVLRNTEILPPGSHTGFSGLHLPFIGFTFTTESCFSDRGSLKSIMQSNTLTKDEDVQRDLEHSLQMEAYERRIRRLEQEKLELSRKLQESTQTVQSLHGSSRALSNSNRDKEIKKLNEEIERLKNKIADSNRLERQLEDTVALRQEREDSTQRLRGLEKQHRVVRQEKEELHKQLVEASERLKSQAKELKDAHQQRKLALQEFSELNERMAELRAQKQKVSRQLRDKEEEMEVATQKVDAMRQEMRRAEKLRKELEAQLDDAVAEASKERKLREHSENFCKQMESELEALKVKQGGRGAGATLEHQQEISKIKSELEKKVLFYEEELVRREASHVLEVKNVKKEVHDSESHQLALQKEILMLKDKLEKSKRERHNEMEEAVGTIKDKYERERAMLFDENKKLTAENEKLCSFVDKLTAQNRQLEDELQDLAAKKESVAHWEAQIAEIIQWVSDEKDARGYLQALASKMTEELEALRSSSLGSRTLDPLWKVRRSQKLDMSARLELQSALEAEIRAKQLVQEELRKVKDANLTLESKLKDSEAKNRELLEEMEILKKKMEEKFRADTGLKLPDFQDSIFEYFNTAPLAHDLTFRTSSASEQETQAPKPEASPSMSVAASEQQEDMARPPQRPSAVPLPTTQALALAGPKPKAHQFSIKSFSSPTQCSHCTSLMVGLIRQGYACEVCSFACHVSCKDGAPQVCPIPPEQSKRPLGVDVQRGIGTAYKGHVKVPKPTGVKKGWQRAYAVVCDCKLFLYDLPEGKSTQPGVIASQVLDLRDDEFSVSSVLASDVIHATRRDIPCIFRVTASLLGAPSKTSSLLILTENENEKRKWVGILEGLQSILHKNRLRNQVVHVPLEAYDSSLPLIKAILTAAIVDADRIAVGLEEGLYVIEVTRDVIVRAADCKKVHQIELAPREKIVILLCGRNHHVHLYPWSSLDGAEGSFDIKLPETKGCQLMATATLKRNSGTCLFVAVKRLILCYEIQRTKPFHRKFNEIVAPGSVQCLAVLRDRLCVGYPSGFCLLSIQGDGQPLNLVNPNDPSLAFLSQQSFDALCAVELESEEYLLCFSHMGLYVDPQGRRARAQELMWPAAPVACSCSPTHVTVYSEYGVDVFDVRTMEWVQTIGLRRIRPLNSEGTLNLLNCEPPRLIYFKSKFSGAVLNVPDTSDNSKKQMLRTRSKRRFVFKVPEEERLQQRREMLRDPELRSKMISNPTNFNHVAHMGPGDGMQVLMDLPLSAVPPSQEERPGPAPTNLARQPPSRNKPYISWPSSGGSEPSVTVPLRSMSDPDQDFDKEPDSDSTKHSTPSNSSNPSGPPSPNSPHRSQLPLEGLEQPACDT
Chain of Activin receptor type-1B (Homo sapiens) (P36896 whole entry): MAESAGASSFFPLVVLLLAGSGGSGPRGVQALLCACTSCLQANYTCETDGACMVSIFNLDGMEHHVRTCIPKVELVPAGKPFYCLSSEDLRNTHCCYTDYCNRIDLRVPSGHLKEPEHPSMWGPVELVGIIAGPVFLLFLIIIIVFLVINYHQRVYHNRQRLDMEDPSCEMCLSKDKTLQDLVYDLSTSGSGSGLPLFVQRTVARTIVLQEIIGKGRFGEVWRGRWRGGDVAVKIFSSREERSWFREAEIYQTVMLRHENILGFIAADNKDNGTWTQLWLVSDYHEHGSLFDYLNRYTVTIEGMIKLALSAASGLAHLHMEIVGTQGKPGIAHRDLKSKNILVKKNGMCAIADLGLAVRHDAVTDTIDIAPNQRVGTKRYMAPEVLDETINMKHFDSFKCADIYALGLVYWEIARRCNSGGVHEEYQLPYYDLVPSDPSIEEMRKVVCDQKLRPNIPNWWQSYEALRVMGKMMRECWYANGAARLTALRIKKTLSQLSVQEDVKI
Chain of D(2) dopamine receptor (Homo sapiens) (P14416 whole entry): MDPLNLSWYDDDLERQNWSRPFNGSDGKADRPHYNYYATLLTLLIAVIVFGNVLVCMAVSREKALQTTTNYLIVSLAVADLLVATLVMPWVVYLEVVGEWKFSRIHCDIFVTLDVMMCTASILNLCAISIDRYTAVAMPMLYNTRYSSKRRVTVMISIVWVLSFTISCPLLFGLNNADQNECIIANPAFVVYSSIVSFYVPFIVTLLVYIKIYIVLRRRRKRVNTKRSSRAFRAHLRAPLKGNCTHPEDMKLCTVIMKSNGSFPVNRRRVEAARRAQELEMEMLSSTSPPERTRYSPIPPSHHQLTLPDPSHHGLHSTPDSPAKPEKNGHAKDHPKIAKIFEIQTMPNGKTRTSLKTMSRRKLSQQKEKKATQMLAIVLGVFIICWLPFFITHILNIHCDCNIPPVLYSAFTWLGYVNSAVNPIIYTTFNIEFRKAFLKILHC
Chain of D(1A) dopamine receptor (Homo sapiens) (P21728 whole entry): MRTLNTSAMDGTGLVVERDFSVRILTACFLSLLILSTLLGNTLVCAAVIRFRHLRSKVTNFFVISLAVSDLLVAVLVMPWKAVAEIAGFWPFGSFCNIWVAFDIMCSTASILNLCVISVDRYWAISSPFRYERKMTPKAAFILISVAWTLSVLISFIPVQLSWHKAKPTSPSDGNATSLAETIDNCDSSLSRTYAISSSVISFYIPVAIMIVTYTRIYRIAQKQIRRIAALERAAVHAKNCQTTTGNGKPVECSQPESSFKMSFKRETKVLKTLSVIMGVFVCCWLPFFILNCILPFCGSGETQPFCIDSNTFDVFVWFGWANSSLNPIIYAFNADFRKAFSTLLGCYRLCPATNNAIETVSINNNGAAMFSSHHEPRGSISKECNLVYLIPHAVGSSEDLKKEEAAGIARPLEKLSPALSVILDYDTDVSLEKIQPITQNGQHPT
Chain of Tyrosine-protein kinase ABL1 (Homo sapiens), P00519 [F317I] (P00519 whole entry F317I): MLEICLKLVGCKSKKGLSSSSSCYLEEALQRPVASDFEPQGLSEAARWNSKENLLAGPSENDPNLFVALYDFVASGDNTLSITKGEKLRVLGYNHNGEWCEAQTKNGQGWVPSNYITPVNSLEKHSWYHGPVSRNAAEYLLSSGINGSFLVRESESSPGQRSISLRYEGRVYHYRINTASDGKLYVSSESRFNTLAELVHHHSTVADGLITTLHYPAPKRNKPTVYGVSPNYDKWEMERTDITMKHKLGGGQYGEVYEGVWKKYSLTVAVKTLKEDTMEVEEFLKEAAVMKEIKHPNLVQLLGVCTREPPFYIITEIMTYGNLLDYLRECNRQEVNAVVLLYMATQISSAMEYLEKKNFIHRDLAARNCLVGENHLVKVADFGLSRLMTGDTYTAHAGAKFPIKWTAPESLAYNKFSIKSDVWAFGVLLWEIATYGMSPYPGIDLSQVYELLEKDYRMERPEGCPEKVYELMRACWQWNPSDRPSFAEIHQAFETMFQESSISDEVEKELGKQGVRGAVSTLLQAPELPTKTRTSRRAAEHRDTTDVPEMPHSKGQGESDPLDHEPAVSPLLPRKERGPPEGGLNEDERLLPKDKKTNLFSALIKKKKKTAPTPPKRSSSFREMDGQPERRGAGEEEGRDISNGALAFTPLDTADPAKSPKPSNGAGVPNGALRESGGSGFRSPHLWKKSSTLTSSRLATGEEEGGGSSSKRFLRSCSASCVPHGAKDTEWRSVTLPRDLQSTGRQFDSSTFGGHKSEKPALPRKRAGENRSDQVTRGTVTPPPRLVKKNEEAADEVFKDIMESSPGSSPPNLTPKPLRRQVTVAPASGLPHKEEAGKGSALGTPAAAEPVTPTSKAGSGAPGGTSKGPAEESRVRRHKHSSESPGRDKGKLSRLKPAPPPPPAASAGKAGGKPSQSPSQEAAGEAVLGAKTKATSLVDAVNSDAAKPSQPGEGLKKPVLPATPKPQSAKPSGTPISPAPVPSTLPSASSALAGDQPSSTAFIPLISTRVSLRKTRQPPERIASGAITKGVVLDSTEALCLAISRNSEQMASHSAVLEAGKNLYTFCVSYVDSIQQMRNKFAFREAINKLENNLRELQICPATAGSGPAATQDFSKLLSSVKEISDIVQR
Chain of Sigma non-opioid intracellular receptor 1 (Homo sapiens) (Q99720 whole entry): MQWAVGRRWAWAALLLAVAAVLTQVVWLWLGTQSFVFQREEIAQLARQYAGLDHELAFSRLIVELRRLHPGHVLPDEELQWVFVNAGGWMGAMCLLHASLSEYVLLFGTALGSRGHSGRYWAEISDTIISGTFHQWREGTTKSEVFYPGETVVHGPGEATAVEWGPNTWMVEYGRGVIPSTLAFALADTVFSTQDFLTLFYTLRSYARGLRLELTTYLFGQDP

On to `CCC(=O)N[C@H]1CC[C@@H](C(=O)N(C)c2ccc(-c3nc4ccccc4o3)cc2)C1` [BI 99179], for which the figures for the inhibition in [1], in [7] and in series [12] were -6.53%, 25.7% and 50%, respectively. Moreover, the residual activity in series [2] is 83%; in [4], 94%; in series [5], 16%; in series [6], 83%; in series [8], 106%; in [9], 90%. Moreover, the residual activity is 87% in series [10]; 100% in series [11]; 102% in series [13]; 93% in series [14]; 98% in series [15]; 95% in [16]. For the same compound, the results for the residual activity in [17], in series [18] and in [19] were 101%, 96% and 101%, respectively. Moreover, the activity at 10 µM in series [3] was 93% (not active).

For `CCC(=O)N[C@@H]1CC[C@H](C(=O)N(C)c2ccc(-c3nc4ccccc4o3)cc2)C1` [BI 99990], the residual activity in series [20] is 100%; in series [21], 100%; in series [22] it was 100%; in series [23] it was 100%; in series [24] it was 96%; in series [25], 75%. Also, the residual activity in series [26] is 87%; in [28], 88%. The results for the Ki (at Histamine H4 receptor; in [27]) were 1630 nM and 396 nM, respectively.

As usually defined, the inhibition is the change of the read-out against control, counted positive when it falls. One may read the Ki as the equilibrium dissociation constant of an inhibitor or competing ligand from its target.
